According to ChEMBL document CHEMBL1157901, “Discovery of a tetrahydropyrimidin-2(1H)-one derivative (TAK-442) as a potent, selective, and orally active factor Xa inhibitor” (J Med Chem, 2010):

Assay: Octanol-water partition coefficient, log D at pH 7.4
Assay type: physicochemical
Details: not given
O=C([C@H](O)CS(=O)(=O)c1ccc2cc(Cl)ccc2c1)N1CCC(N2NCCCC2=O)CC1 gave a logD of 1.85.
For O=C([C@H](O)CS(=O)(=O)c1ccc2cc(Cl)ccc2c1)N1CCC(n2cc[nH]c2=O)CC1, the logD was 1.79.
O=C([C@H](O)CS(=O)(=O)c1ccc2cc(Cl)ccc2c1)N1CCC(N2CCOC2=O)CC1 showed a logD of 1.75.
Compound O=C([C@H](O)CS(=O)(=O)c1ccc2cc(Cl)ccc2c1)N1CCC(N2CCOCC2=O)CC1 has a logD of 1.85.
With O=C([C@H](O)CS(=O)(=O)c1ccc2cc(Cl)ccc2c1)N1CCC(N2CCNC2=O)CC1 the logD was 1.73.
Compound O=C([C@H](O)CS(=O)(=O)c1ccc2cc(Cl)ccc2c1)N1CCC(N2CCCC2)CC1 has a logD of 1.56.
O=C([C@H](O)CS(=O)(=O)c1ccc2cc(Cl)ccc2c1)N1CCC(N2CCCCCC2=O)CC1 gave a logD of 2.52.
Compound O=C([C@H](O)CS(=O)(=O)c1ccc2cc(Cl)ccc2c1)N1CCC(N2CCCS2(=O)=O)CC1 has a logD of 1.69.
O=C([C@H](O)CS(=O)(=O)c1ccc2cc(Cl)ccc2c1)N1CCC(N2Cc3cccn3C2=O)CC1 gave a logD of 2.6.
O=C([C@H](O)CS(=O)(=O)c1ccc2cc(Cl)ccc2c1)N1CCC(N2C[C@@H]3CCCN3C2=O)CC1 showed a logD of 2.16.
O=C([C@H](O)CS(=O)(=O)c1ccc2cc(Cl)ccc2c1)N1CCC(N2Cc3ccccc3C2=O)CC1 gave a logD of 2.58.
O=C([C@H](O)CS(=O)(=O)c1ccc2cc(Cl)ccc2c1)N1CCC(N2CCCNC2=O)CC1 [LETAXABAN] showed a logD of 1.81.
O=C([C@H](O)CS(=O)(=O)c1ccc2cc(Cl)ccc2c1)N1CCC(N2CCCCC2=O)CC1 showed a logD of 2.19.
Work on O=C([C@H](O)CS(=O)(=O)c1ccc2cc(Cl)ccc2c1)N1CCC(N2CCCC2=O)CC1 yielded a logD of 1.96.
O=C([C@H](O)CS(=O)(=O)c1ccc2cc(Cl)ccc2c1)N1CCC(N2CCCOC2=O)CC1 showed a logD of 1.67.
Compound Cc1ncc2n1C(=O)N(C1CCN(C(=O)[C@H](O)CS(=O)(=O)c3ccc4cc(Cl)ccc4c3)CC1)C2 has a logD of 2.13.
In the case of O=C([C@H](O)CS(=O)(=O)c1ccc2cc(Cl)ccc2c1)N1CCC(N2C[C@H]3CCCN3C2=O)CC1, the logD is reported as 2.16.

Assay: Metabolic stability in monkey liver microsomes assessed as compound remaining after 120 mins by HPLC
Assay type: ADME, Macaca mulatta, Microsome
Details: rhesus monkey, read-out: Activity
With Cc1ncc2n1C(=O)N(C1CCN(C(=O)CCS(=O)(=O)c3ccc4cc(Cl)ccc4c3)CC1)C2 the remaining at 2 h was 99.9%.

Assay: Metabolic stability in human liver microsomes assessed as compound remaining after 120 mins by HPLC
Assay type: ADME, Microsome
Details: read-out: Activity
In the case of Cc1ncc2n1C(=O)N(C1CCN(C(=O)CCS(=O)(=O)c3ccc4cc(Cl)ccc4c3)CC1)C2, the remaining at 2 h is reported as 70.5%.
